# Results taken from patent US20250114374A1, “BCL-2 INHIBITORS” (Newave Pharmaceutical Inc., priority 2021, published 2025).
# Test system: RS4; 11 with G101V mutation
# Experiment: In vitro anti-proliferation assay (ATPlite luminescence) in BCL-2-dependent ALL cell line RS4;11 with G101V mutation
# Type: cell-based
# Conditions: Homo sapiens, RS4-11, 72 h; read-out: RS411-G101V IC50
# In short: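 IC50 came from luminescent ATP quantification (ATPlite) following cell lysis. Compound dose ranges were applied for roughly 72 h to about 1×10^4 G101V-mutant RS4;11 cells per well, in 10% FBS medium.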
row,IC50 [nM],SMILES
1,10.2,"CC(C)Oc1ccccc1[C@@H]1CN(Cc2cccnc2)CCN1C1CC2(CCN(c3ccc(C(=O)NS(=O)(=O)c4cc5c(c([N+](=O)[O-])c4)N[C@H](C4CCOCC4)CO5)c(N4c5cc6cc[nH]c6nc5O[C@H]5COCC[C@@H]54)c3)CC2)C1 [Example 253, 4-(2-((R)-2-(2-isopropoxyphenyl)-4-(pyridin-3-ylmethyl)piperazin-1-yl)-7-azaspiro[3.5]nonan-7-yl)-N-(((R)-5-nitro-3-(tetrahydro-2H-pyran-4-yl)-3,4-dihydro-2H-benzo[b][1,4]oxazin-7-yl)sulfonyl)-2-((5aS,9aR)-6,7,9,9a-tetrahydro-1H-pyrano[3,4-b]pyrrolo[3′,2′:5,6]pyrido[3,2-e][1,4]oxazin-5(5aH)-yl)benzamide]"
2,4.64,"COc1cc2c(nc1N1CCOC[C@@H]1C)COC[C@@H]2N1CCN(C2CC3(CCN(c4ccc(C(=O)NS(=O)(=O)c5cc6c(c([N+](=O)[O-])c5)N[C@H](C5CCOCC5)CO6)c(N5c6cc7cc[nH]c7nc6O[C@H]6COCC[C@@H]65)c4)CC3)C2)[C@H](c2ccccc2OC(C)C)C1 [Example 233, 4-(2-((R)-2-(2-isopropoxyphenyl)-4-((R)-3-methoxy-2-((S)-3-methylmorpholino)-5,8-dihydro-6H-pyrano[3,4-b]pyridin-5-yl)piperazin-1-yl)-7-azaspiro[3.5]nonan-7-yl)-N-(((R)-5-nitro-3-(tetrahydro-2H-pyran-4-yl)-3,4-dihydro-2H-benzo[b][1,4]oxazin-7-yl)sulfonyl)-2-((5aS,9aR)-6,7,9,9a-tetrahydro-1H-pyrano[3,4-b]pyrrolo[3′,2′:5,6]pyrido[3,2-e][1,4]oxazin-5(5aH)-yl)benzamide]"
3,104,"CC(C)Oc1ccccc1[C@@H]1CN([C@H]2COCc3c(F)cc(F)cc32)CCN1C1CC2(CCN(c3ccc(C(=O)NS(=O)(=O)c4cc5c(c([N+](=O)[O-])c4)N[C@H](C4CCOCC4)CO5)c(N4c5cc6cc[nH]c6nc5O[C@H]5COCC[C@@H]54)c3)CC2)C1 [Example 230, 4-(2-((R)-4-((R)-6,8-difluoroisochroman-4-yl)-2-(2-isopropoxyphenyl)piperazin-1-yl)-7-azaspiro[3.5]nonan-7-yl)-N-(((R)-5-nitro-3-(tetrahydro-2H-pyran-4-yl)-3,4-dihydro-2H-benzo[b][1,4]oxazin-7-yl)sulfonyl)-2-((5aS,9aR)-6,7,9,9a-tetrahydro-1H-pyrano[3,4-b]pyrrolo[3′,2′:5,6]pyrido[3,2-e][1,4]oxazin-5(5aH)-yl)benzamide]"
4,30.6,"CC(C)Oc1ccccc1[C@@H]1CN([C@H]2COCc3cc(F)c(F)cc32)CCN1C1CC2(CCN(c3ccc(C(=O)NS(=O)(=O)c4cc5c(c([N+](=O)[O-])c4)N[C@H](C4CCOCC4)CO5)c(N4c5cc6cc[nH]c6nc5O[C@H]5COCC[C@@H]54)c3)CC2)C1 [Example 216, 4-(2-((R)-4-((R)-6,7-difluoroisochroman-4-yl)-2-(2-isopropoxyphenyl)piperazin-1-yl)-7-azaspiro[3.5]nonan-7-yl)-N-(((R)-5-nitro-3-(tetrahydro-2H-pyran-4-yl)-3,4-dihydro-2H-benzo[b][1,4]oxazin-7-yl)sulfonyl)-2-((5aS,9aR)-6,7,9,9a-tetrahydro-1H-pyrano[3,4-b]pyrrolo[3′,2′:5,6]pyrido[3,2-e][1,4]oxazin-5(5aH)-yl)benzamide]"

# Same assay, conditions: cellular anti-proliferative IC50, about 72 hours, medium with 10% FBS, ATPlite; read-out: RS411-G101V IC50
row,SMILES,IC50 [nM]
1,"COc1cc(CN2CCN(C3CC4(CCN(c5ccc(C(=O)NS(=O)(=O)c6ccc(NCC7CCC(C)(O)CC7)c([N+](=O)[O-])c6)c(N6c7cc8cc[nH]c8nc7O[C@H]7COCC[C@@H]76)c5)CC4)C3)[C@@H](c3ccccc3OC(C)C)C2)cnc1C1CC1 (stereo partly drawn) [Example 134, 4-{2-[(2S)-4-[(6-cyclopropyl-5-methoxypyridin-3-yl)methyl]-2-(2-isopropoxyphenyl)piperazin-1-yl]-7-azaspiro[3.5]nonan-7-yl}-2-[(3R,8S)-2,5-dioxa-9,15,17-triazatetracyclo[8.7.0.0^{3,8}.0^{12,16}]heptadeca-1(10),11,13,16-tetraen-9-yl]-N-[3-nitro-4-({[(1r,4r)-4-hydroxy-4-methylcyclohexyl]methyl}amino)benzenesulfonyl]benzamide]",18.8
2,"CC(C)Oc1ccccc1[C@H]1CN(CC2CCOCC2)CCN1C1CC2(CCN(c3ccc(C(=O)NS(=O)(=O)c4ccc(NCC5CCC(C)(O)CC5)c([N+](=O)[O-])c4)c(N4c5cc6cc[nH]c6nc5O[C@H]5COCC[C@@H]54)c3)CC2)C1 (stereo partly drawn) [Example 159, 2-[(3R,8S)-2,5-dioxa-9,15,17-triazatetracyclo[8.7.0.0^{3,8}.0^{12,16}]heptadeca-1(10),11,13,16-tetraen-9-yl]-4-{2-[(2S)-2-(2-isopropoxyphenyl)-4-(oxan-4-ylmethyl)piperazin-1-yl]-7-azaspiro[3.5]nonan-7-yl}-N-[3-nitro-4-({[(1r,4r)-4-hydroxy-4-methylcyclohexyl]methyl}amino)benzenesulfonyl]benzamide]",7.5
3,"Cc1ccccc1[C@@H]1CN(C2CCN(C3CCOCC3)CC2)CCN1C1CC2(CCN(c3ccc(C(=O)NS(=O)(=O)c4cc5c(c([N+](=O)[O-])c4)N[C@H](C4CCOCC4)CO5)c(N4c5cc6cc[nH]c6nc5O[C@H]5COCC[C@@H]54)c3)CC2)C1 [Example 201, 2-[(3R,8S)-2,5-dioxa-9,15,17-triazatetracyclo[8.7.0.0^{3,8}.0^{12,16}]heptadeca-1(10),11,13,16-tetraen-9-yl]-4-{2-[(2R)-2-(2-methylphenyl)-4-[1-(oxan-4-yl)piperidin-4-yl]piperazin-1-yl]-7-azaspiro[3.5]nonan-7-yl}-N-[(3R)-5-nitro-3-(oxan-4-yl)-3,4-dihydro-2H-1,4-benzoxazin-7-ylsulfonyl]benzamide]",232
4,"CC(C)Oc1ccccc1[C@H]1CN(Cc2cnc3c(c2)OCCO3)CCN1C1CC2(CCN(c3ccc(C(=O)NS(=O)(=O)c4ccc(NCC5CCC(C)(O)CC5)c([N+](=O)[O-])c4)c(N4c5cc6cc[nH]c6nc5O[C@H]5COCC[C@@H]54)c3)CC2)C1 (stereo partly drawn) [Example 117, 2-[(3R,8S)-2,5-dioxa-9,15,17-triazatetracyclo[8.7.0.0^{3,8}.0^{12,16}]heptadeca-1(10),11,13,16-tetraen-9-yl]-4-{2-[(2S)-4-{2H,3H-[1,4]dioxino[2,3-b]pyridin-7-ylmethyl}-2-(2-isopropoxyphenyl)piperazin-1-yl]-7-azaspiro[3.5]nonan-7-yl}-N-[3-nitro-4-({[(1r,4r)-4-hydroxy-4-methylcyclohexyl]methyl}amino)benzenesulfonyl]benzamide]",13.2
5,"COc1ccc(CN2CCN(C3CC4(CCN(c5ccc(C(=O)NS(=O)(=O)c6ccc(NC[C@H]7CC[C@](C)(O)CC7)c([N+](=O)[O-])c6)c(N6c7cc8cc[nH]c8nc7O[C@H]7COCC[C@@H]76)c5)CC4)C3)[C@@H](c3ccccc3OC(C)C)C2)nc1OC [Example 105, 4-{2-[(2S)-4-[(5,6-dimethoxypyridin-2-yl)methyl]-2-(2-isopropoxyphenyl)piperazin-1-yl]-7-azaspiro[3.5]nonan-7-yl}-2-[(3R,8S)-2,5-dioxa-9,15,17-triazatetracyclo[8.7.0.0^{3,8}.0^{12,16}]heptadeca-1(10),11,13,16-tetraen-9-yl]-N-[3-nitro-4-({[(1r,4r)-4-hydroxy-4-methylcyclohexyl]methyl}amino)benzenesulfonyl]benzamide]",19.3
6,"Cc1ccccc1[C@@H]1CN(Cc2ccc(F)c(F)c2)CCN1C1CC2(CCN(c3ccc(C(=O)NS(=O)(=O)c4ccc(NCC5CCOCC5)c([N+](=O)[O-])c4)c(N4c5cc6cc[nH]c6nc5O[C@H]5COCC[C@@H]54)c3)CC2)C1 [Example 164, 4-{2-[(2R)-4-[(3,4-difluorophenyl)methyl]-2-(2-methylphenyl)piperazin-1-yl]-7-azaspiro[3.5]nonan-7-yl}-2-[(3R,8S)-2,5-dioxa-9,15,17-triazatetracyclo[8.7.0.0^{3,8}.0^{12,16}]heptadeca-1(10),11,13,16-tetraen-9-yl]-N-{3-nitro-4-[(oxan-4-ylmethyl)amino]benzenesulfonyl}benzamide]",48.5
7,"COc1cc(CN2CCN(C3CC4(CCN(c5ccc(C(=O)NS(=O)(=O)c6ccc(NCC7CCC(C)(O)CC7)c([N+](=O)[O-])c6)c(N6c7cc8cc[nH]c8nc7O[C@H]7COCC[C@@H]76)c5)CC4)C3)[C@H](c3ccccc3C)C2)cnc1N1CCOCC1 (stereo partly drawn) [Example 124, N-((4-((((1r,4r)-4-hydroxy-4-methylcyclohexyl)methyl)amino)-3-nitrophenyl)sulfonyl)-4-(2-((R)-4-((5-(methoxy-d3)-6-morpholinopyridin-3-yl)methyl)-2-(o-tolyl)piperazin-1-yl)-7-azaspiro[3.5]nonan-7-yl)-2-((5aS,9aR)-6,7,9,9a-tetrahydro-1H-pyrano[3,4-b]pyrrolo[3′,2′:5,6]pyrido[3,2-e][1,4]oxazin-5(5aH)-yl)benzamide]",2
8,"Cc1cc2c(CN3CCN(C4CC5(CCN(c6ccc(C(=O)NS(=O)(=O)c7ccc(NCC8CCC(C)(O)CC8)c([N+](=O)[O-])c7)c(N7c8cc9cc[nH]c9nc8O[C@H]8COCC[C@@H]87)c6)CC5)C4)[C@@H](c4ccccc4OC(C)C)C3)cnc(N3CCOCC3)c2o1 (stereo partly drawn) [Example 147, 2-[(3R,8S)-2,5-dioxa-9,15,17-triazatetracyclo[8.7.0.0^{3,8}.0^{12,16}]heptadeca-1(10),11,13,16-tetraen-9-yl]-4-{2-[(2S)-2-(2-isopropoxyphenyl)-4-{[2-methyl-7-(morpholin-4-yl)furo[2,3-c]pyridin-4-yl]methyl}piperazin-1-yl]-7-azaspiro[3.5]nonan-7-yl}-N-[3-nitro-4-({[(1r,4r)-4-hydroxy-4-methylcyclohexyl]methyl}amino)benzenesulfonyl]benzamide]",31.9
